From patent US11752188B2, “Compositions and methods for nutritional supplements” (DailyColors Health Inc., priority 2020, dated 2023)

Molecular target: T1, recombinant human CD73 (Homo sapiens, UniProt P21589)
T1 construct: purchased BPS Bioscience 71184 (enzyme); kit #72055
T1 sequence (P21589 27-549): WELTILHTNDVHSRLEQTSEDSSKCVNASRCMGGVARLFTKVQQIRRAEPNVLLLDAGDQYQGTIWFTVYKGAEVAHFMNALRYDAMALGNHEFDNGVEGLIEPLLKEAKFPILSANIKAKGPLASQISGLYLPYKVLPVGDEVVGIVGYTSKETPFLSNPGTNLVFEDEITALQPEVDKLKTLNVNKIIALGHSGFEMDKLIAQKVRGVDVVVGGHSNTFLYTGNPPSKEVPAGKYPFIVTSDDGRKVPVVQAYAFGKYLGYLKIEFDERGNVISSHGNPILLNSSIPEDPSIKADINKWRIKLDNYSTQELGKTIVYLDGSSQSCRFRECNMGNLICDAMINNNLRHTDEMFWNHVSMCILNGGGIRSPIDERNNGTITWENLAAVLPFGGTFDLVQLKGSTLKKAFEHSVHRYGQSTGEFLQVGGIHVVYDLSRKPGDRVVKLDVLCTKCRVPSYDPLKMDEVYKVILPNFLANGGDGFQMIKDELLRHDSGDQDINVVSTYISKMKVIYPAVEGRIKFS
Experiment: CD73 in vitro enzymatic assay (colorimetric 630 nm)
Assay type: biochemical
Source text: Here, D5 is the Yellow Blend, D9 is the Purple Blend, D21 is the Green Blend, D13 is the Red Blend, and D31 is CBD. As before, the red blend included Apple Extract, Pomegranate Extract, Tomato Powder, Beet; the green blend included Olive Extract, Rosemary Extract, Green Coffee Bean Extract, Kale; the orange/yellow blend included Onion Extract, Ginger Extract, Grapefruit Extract, Carrot; and the purple/blue blend included Grape, Blueberry Extract, Currant, Elderberry.
Assay Conditions: In general, all assays points were done by following the CD39 and CD73 Inhibitor Screening Assay Kit protocol (BPS Bioscience, #79278 and 72055, respectively). The CD73 enzymatic reactions were conducted in duplicate at room temperature for 30 minutes in a 50 μl mixture containing assay buffer, […], CD73 enzymes, and the test compound. Test compounds were preincubated with the enzyme for 30 minutes. Reactions were started by addition of the substrate. The 50 μl reactions were carried out in a 96-well transparent plate. After enzymatic reactions, 100 μl of Colorimetric Detection Reagent was added to the reaction mix. After a 15 minutes incubation, absorbance was measured using a Tecan plate reader at 630 nm.
Data Analysis: Enzyme activity assays were performed in duplicates at each concentration. The Absorbance intensity data were analyzed and compared. In the absence of the compound, the intensity in each data set was defined as 100% (Ce) activity. In the absence of enzyme, the intensity in each data set was defined as 0% (C0) activity.

Nc1ncnc2c1ncn2[C@@H]1O[C@H](COP(=O)(O)CP(=O)(O)O)[C@@H](O)[C@H]1O [AMPCP]
Activity (%) Repeat 1 (0.1 μM, TABLE 93): 81%
Activity (%) Repeat 2 (0.1 μM, TABLE 93): 96%
Inhibition (%) (0.1 μM, TABLE 93): 12%
Net Signal (Absorbance) Repeat 1 (0.1 μM, TABLE 93): 0.14
Net Signal (Absorbance) Repeat 2 (0.1 μM, TABLE 93): 0.17
Activity (%) Rep. 1 (1 μM, TABLE 90): 92%
Activity (%) Rep. 2 (1 μM, TABLE 90): 96%
Inhibition (%) (1 μM, TABLE 90): 6%
Net absorbance Rep. 1 (1 μM, TABLE 90): 0.368
Net absorbance Rep. 2 (1 μM, TABLE 90): 0.383
Activity (%) Rep. 1 (1 μM, TABLE 91): 89%
Activity (%) Rep. 2 (1 μM, TABLE 91): 89%
Inhibition (%) (1 μM, TABLE 91): 11%
Net absorbance Rep. 1 (1 μM, TABLE 91): 0.30
Net absorbance Rep. 2 (1 μM, TABLE 91): 0.30
Activity (%) Repeat 1 (1 μM, TABLE 93): 53%
Activity (%) Repeat 2 (1 μM, TABLE 93): 64%
Inhibition (%) (1 μM, TABLE 93): 41%
Net Signal (Absorbance) Repeat 1 (1 μM, TABLE 93): 0.09
Net Signal (Absorbance) Repeat 2 (1 μM, TABLE 93): 0.11
Activity (%) Rep. 1 (10 μM, TABLE 90): 74%
Activity (%) Rep. 2 (10 μM, TABLE 90): 76%
Inhibition (%) (10 μM, TABLE 90): 25%
Net absorbance Rep. 1 (10 μM, TABLE 90): 0.298
Net absorbance Rep. 2 (10 μM, TABLE 90): 0.306
Activity (%) Rep. 1 (10 μM, TABLE 91): 52%
Activity (%) Rep. 2 (10 μM, TABLE 91): 59%
Inhibition (%) (10 μM, TABLE 91): 45%
Net absorbance Rep. 1 (10 μM, TABLE 91): 0.18
Net absorbance Rep. 2 (10 μM, TABLE 91): 0.20
Activity (%) Repeat 1 (10 μM, TABLE 93): 20%
Activity (%) Repeat 2 (10 μM, TABLE 93): 28%
Inhibition (%) (10 μM, TABLE 93): 76%
Net Signal (Absorbance) Repeat 1 (10 μM, TABLE 93): 0.04
Net Signal (Absorbance) Repeat 2 (10 μM, TABLE 93): 0.05
Activity (%) Rep. 1 (100 μM, TABLE 90): 17%
Activity (%) Rep. 2 (100 μM, TABLE 90): 22%
Inhibition (%) (100 μM, TABLE 90): 80%
Net absorbance Rep. 1 (100 μM, TABLE 90): 0.071
Net absorbance Rep. 2 (100 μM, TABLE 90): 0.089
Activity (%) Rep. 1 (100 μM, TABLE 91): 13%
Activity (%) Rep. 2 (100 μM, TABLE 91): 12%
Inhibition (%) (100 μM, TABLE 91): 88%
Net absorbance Rep. 1 (100 μM, TABLE 91): 0.04
Net absorbance Rep. 2 (100 μM, TABLE 91): 0.04
